# Earlier results, collected in patent publication US8952001B2, “Amino-heteroaryl derivatives as HCN blockers” (Merck Sharp & Dohme Corp., priority 2009, dated 2015).
# Where two headings read alike, the source gives them in different places.
# How the values were obtained:
# [1] = system: ectopic discharges in A-beta and A-delta fibres; conditions: without causing conduction block
# [2] = system: allodynia; conditions: rat CFA model of inflammatory pain
# [3] = system: mechanical allodynia; conditions: intraperitoneal administration; Chung/von Frey
# [4] = system: spontaneous pain; conditions: rat, mild thermal injury model
# [5] = system: mechanical allodynia; conditions: local administration to the sciatic nerve 4 h after surgery in rats; Brennan model
# [6] = system: nerve injured myelinated DRG
smiles,measurement,setting,value
CCN(c1ccccc1)c1cc(=NC)n(C)c(C)n1.Cl [ZD 7288],firing frequency of ectopic discharges,[1],reduced the firing frequency of ectopic discharges
same,allodynia,[2],suppresses allodynia
same,mechanical allodynia,[3],dose-dependently reverses mechanical allodynia
same,spontaneous pain,[4],blocks spontaneous pain
same,mechanical allodynia,[5],attenuates mechanical allodynia
same,spontaneous activity,[6],reduces spontaneous activity
